The values that follow come from PMC9039177 (Frontiers in Chemistry, 2022).

Molecules are shown by their SMILES. ≈ marks a conversion by molar mass, not a printed value. Where “and” joins values, the source holds several entries; their conditions need not be identical. Equal values may be shown once. Where a name gives a salt, the structure may show the parent alone. Read-outs that look alike come from different tables or passages of the source.

Data set [1] has as its target T1, SARS-CoV-2 PLpro (Severe acute respiratory syndrome coronavirus 2, UniProt P0DTD1). Nature of the data set: biochemical.
The target of data set [2] is T2, MERS-CoV PLpro (Middle East respiratory syndrome-related coronavirus, UniProt K9N7C7). Nature of the data set: biochemical. The format is binding.
T2 sequence (K9N7C7 1482-1803 limits assumed): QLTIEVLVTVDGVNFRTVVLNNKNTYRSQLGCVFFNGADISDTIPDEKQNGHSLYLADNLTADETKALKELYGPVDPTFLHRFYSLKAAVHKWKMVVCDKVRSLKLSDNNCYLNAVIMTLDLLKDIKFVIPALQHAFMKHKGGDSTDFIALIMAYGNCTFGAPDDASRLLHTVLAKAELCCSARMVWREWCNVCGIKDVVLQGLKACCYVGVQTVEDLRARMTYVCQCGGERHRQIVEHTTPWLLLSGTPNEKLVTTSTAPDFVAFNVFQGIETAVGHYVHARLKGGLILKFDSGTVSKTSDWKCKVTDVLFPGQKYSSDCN
Data set [3] concerns the target T3, SARS-CoV PLpro (Severe acute respiratory syndrome coronavirus, UniProt P0C6X7). Briefly: biochemical.
The subject of data set [4] is SARS-CoV-2. The format is cell-based.
The nature of data set [5]: in vitro. The following applies: human, microsomes, pH 7.4.
The nature of data set [6]: in vitro. As to conditions: human, Caco-2, pH 7.4.
The nature of data set [7]: in vitro. As to conditions: mouse, microsomes, pH 7.4.
The nature of a further data set: physchem. As to conditions: kinetic from dmso stock.
Data set [8] concerns the target T1, SARS-CoV-2 PLpro. Nature of the data set: biochemical. The format is binding.
The target of data set [9] is T3, SARS-CoV PLpro. Briefly: biochemical. Format: binding.
Data set [10] addresses T2, MERS-CoV PLpro. Briefly: biochemical.
The test system of data set [11] is SARS-CoV-2. As to conditions: cited from earlier work.
Another data set has as its target human USP21 (Homo sapiens, UniProt Q9UK80). Briefly: biochemical.
Data set [12] addresses T1, SARS-CoV-2 PLpro. The following applies: read-out: IC50 against PLpro; cited from earlier work.

Sequence of human USP21 (Q9UK80 whole entry): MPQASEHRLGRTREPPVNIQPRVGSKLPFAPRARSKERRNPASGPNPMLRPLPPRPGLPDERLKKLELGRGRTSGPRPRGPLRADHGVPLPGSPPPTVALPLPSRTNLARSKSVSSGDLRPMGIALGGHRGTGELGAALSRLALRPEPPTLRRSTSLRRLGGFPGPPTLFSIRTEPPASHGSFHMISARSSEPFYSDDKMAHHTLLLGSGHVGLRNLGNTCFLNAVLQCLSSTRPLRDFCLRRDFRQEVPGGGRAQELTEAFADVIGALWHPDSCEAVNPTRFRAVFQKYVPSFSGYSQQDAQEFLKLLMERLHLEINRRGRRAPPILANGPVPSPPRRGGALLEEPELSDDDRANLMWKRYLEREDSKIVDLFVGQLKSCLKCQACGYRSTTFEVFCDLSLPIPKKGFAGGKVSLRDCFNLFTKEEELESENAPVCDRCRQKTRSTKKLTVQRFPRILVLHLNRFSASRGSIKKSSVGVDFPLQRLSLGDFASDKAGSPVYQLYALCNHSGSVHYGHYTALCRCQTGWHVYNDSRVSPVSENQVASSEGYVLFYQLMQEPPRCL

Turning to `COc1cc(CNC(=O)C2CCN(C(C)c3ccc(F)c4ccccc34)CC2)ccn1` (stereo not shown) [Compound 8, 1-[1-(4-fluoronaphthalen-1-yl)ethyl]-N-[(2-methoxypyridin-4-yl)methyl]piperidine-4-carboxamide], the “loss of potency relative to parent 5c” value on SARS-CoV-2 PLpro [1] was found to be 3 fold. On SARS-CoV-2 PLpro [1] (calculated IC50), the IC50 was 2200 nM.

Take `COc1cc(CNC(=O)C2CCN(C(C)c3cccc(-c4ccccc4)c3)CC2)ccn1` (stereo not shown) [Compound 1, 1-{1-[(1,1′-biphenyl)-3-yl]ethyl}-N-[(2-methoxypyridin-4-yl)methyl]piperidine-4-carboxamide]: the “loss of potency relative to parent 5c” value at SARS-CoV-2 PLpro [1] worked out at 20 fold. At SARS-CoV-2 PLpro [1] (calculated IC50), the IC50 is 18000 nM.

As to `COc1cc(CNCC2CCN([C@H](C)c3cccc4ccccc34)CC2)ccn1.O=CO` [Compound 11, (R)-1-(2-methoxypyridin-4-yl)-N-((1-(1-(naphthalen-1-yl)ethyl)piperidin-4-yl)methyl)methanamine formate], the “loss of potency relative to parent 5c” value on SARS-CoV-2 PLpro [1] worked out at 7 fold. On SARS-CoV-2 PLpro [1] (calculated IC50), the IC50 is 5700 nM.

On to `COc1cc(CNC(=O)C2CCN(C(C)c3ccc(OC)c4ccccc34)CC2)ccn1` (stereo not shown) [Compound 9, 1-[1-(4-methoxynaphthalen-1-yl)ethyl]-N-[(2-methoxypyridin-4-yl)methyl]piperidine-4-carboxamide], for which the “Mouse plasma protein binding” value was determined as 90.1 % bound. This compound displayed a Kd on MERS-CoV PLpro [2] of more than 20000 nM. In addition, the Kd at MERS-CoV PLpro [2] (read-out: KD Exp1, MERS-CoV) is more than 20000 nM. Further, at MERS-CoV PLpro [2] (read-out: KD Exp3, MERS-CoV), the Kd is more than 20000 nM. Moreover, the IC50 against SARS-CoV PLpro [3] turned out to be 700 nM. In the data set on SARS-CoV-2 [4], the “reduction of viral titer” value is given as 1 log and the viral titer result was “below the limit of detection”. For the same compound, the “efflux in Caco-2” value in the data set on Caco-2 cell monolayers is listed as “no evidence of efflux”. In the data set “in vitro [5]”, the half-life is 39 min and the microsomal CLint is 45 µL/min/mg. Also, in “in vitro [6]”, the Papp A→B came out at 46 ×10⁻⁶ cm/s and the Papp B→A was found to be 46 ×10⁻⁶ cm/s. In the data set “in vitro [7]”, the half-life was found to be 35 min and the microsomal CLint stood at 50 µL/min/mg. In addition, the kinetic solubility in the data set “physchem” (pH 2, aqueous buffer) is more than 140 µg/mL. This compound also displayed a kinetic solubility in the data set “physchem” (pH 6.5, aqueous buffer) of 70 to 140 µg/mL (≈ 161 to 323 µM). The compound also yielded a dissociation constant (Kd) at SARS-CoV-2 PLpro [8] (KD Exp1, SARS-CoV-2 PLpro WT) of 1420 nM. This compound gave a Kd at SARS-CoV-2 PLpro [8] (KD Exp2, SARS-CoV-2 PLpro WT) of 1820 nM. Besides, binding at SARS-CoV-2 PLpro [8] (KD Exp3, SARS-CoV-2 PLpro WT) was put at a Kd of 2340 nM. On SARS-CoV-2 PLpro [8] (KD, SARS-CoV-2), this compound gave an equilibrium dissociation constant (Kd) of 1860 ± 460 nM. In addition, the dissociation constant (Kd) on SARS-CoV PLpro [9] (KD Exp1, SARS-CoV) was determined as 805 nM. The compound also had a Kd on SARS-CoV PLpro [9] (KD Exp2, SARS-CoV) of 800 nM. The compound further had a Kd on SARS-CoV PLpro [9] (KD Exp3, SARS-CoV) of 840 nM. Also, the Kd at SARS-CoV PLpro [9] (KD, SARS-CoV) was 815 nM and 820 nM. The compound further yielded an IC50 on MERS-CoV PLpro [10] of more than 98000 nM. The compound further registered an IC50 on SARS-CoV-2 PLpro [1] (IC50, SARS-CoV-2) of 760 nM.

In the case of `Cc1ncc(CNC(=O)C2CCN([C@H](C)c3cccc4ccccc34)CC2)s1` [Compound 14, (R)-N-[(2-methylthiazol-5-yl)methyl]-1-(1-(naphthalen-1-yl)ethyl)piperidine-4-carboxamide], the IC50 at SARS-CoV-2 PLpro [1] (calculated IC50) was 710 nM.

With `CCOc1ccc2ccccc2c1C(C)N1CCC(C(=O)NCc2ccnc(OC)c2)CC1` (stereo not shown) [Compound 7, 1-[1-(2-ethoxynaphthalen-1-yl)ethyl]-N-[(2-methoxypyridin-4-yl)methyl]piperidine-4-carboxamide], on SARS-CoV-2 PLpro [1], the “potency against SARS-CoV-2 PLpro in words” value (shortened to “potency … in words”) is “not tolerated”.

For the compound `COc1cc(CNC(=O)C2CCN(C(C)c3c(OC)ccc4ccccc34)CC2)ccn1.O=CO` (stereo not shown) [Compound 6, 1-[1-(2-methoxynaphthalen-1-yl)ethyl]-N-[(2-methoxypyridin-4-yl)methyl]piperidine-4-carboxamide formate], the “potency … in words” value at SARS-CoV-2 PLpro [1] was “not tolerated”.

As for `C[C@H](c1cccc2ccccc12)N1CCC(C(=O)NCC2CCOCC2)CC1` [Compound 17, (R)-1-(1-(naphthalen-1-yl)ethyl)-N-((tetrahydro-2H-pyran-4-yl)methyl)piperidine-4-carboxamide], on SARS-CoV-2 PLpro [1] (calculated IC50), the IC50 was 1300 nM.

As for `COc1cc(C(=O)NCC2CCN([C@H](C)c3cccc4ccccc34)CC2)ccn1` [Compound 10, (R)-2-methoxy-N-((1-(1-(naphthalen-1-yl)ethyl)piperidin-4-yl)methyl)isonicotinamide], the “loss of potency relative to parent 5c” value at SARS-CoV-2 PLpro [1] was 4 fold. In addition, the IC50 at SARS-CoV-2 PLpro [1] (calculated IC50) was 3400 nM.

For `C[C@H](c1cccc2ccccc12)N1CCC(C(=O)NCc2cccnc2)CC1` [Compound 15, (R)-1-(1-(naphthalen-1-yl)ethyl)-N-(pyridin-3-ylmethyl)piperidine-4-carboxamide], the IC50 on SARS-CoV-2 PLpro [1] (calculated IC50) is 820 nM.

As to `COc1cc(CNC(=O)C2CCN(C(C)c3c(C)sc4ccccc34)CC2)ccn1` (stereo not shown) [Compound 3, N-[(2-methoxypyridin-4-yl)methyl]-1-{1-[2-methylbenzo(b)thiophen-3-yl]ethyl}piperidine-4-carboxamide], the “potency … in words” value on SARS-CoV-2 PLpro [1] is “completely inactive”.

`CNC(=O)C1CCN([C@H](C)c2cccc3ccccc23)CC1` [Compound 12, (R)-N-methyl-1-(1-(naphthalen-1-yl)ethyl)piperidine-4-carboxamide]: the “loss of potency relative to parent 5c” value on SARS-CoV-2 PLpro [1] is listed as 4 fold. For the same compound, on SARS-CoV-2 PLpro [1] (calculated IC50), the IC50 was 3100 nM.

`COc1cc(CNC(=O)C2CCN(C(C)c3csc4ccccc34)CC2)ccn1` (stereo not shown) [Compound 2, 1-{1-[benzo(b)thiophen-3-yl]ethyl}-N-[(2-methoxypyridin-4-yl)methyl]piperidine-4-carboxamide formate]: the IC50 at SARS-CoV-2 PLpro [1] (calculated IC50) was 4500 nM.

For `C[C@H](c1cccc2ccccc12)N1CCC(C(=O)NCc2cccc(F)c2)CC1` [Compound 3k], the “Mouse plasma protein binding” value is recorded as 95.3 % bound. Besides, the Kd at MERS-CoV PLpro [2] was more than 20000 nM. On MERS-CoV PLpro [2] (read-out: KD Exp1, MERS-CoV), the Kd was more than 20000 nM. The Kd on MERS-CoV PLpro [2] (read-out: KD Exp3, MERS-CoV) was more than 20000 nM. The IC50 on SARS-CoV PLpro [3] stood at 860 nM. The “reduction of viral titer” value in the data set with SARS-CoV-2 [4] came to 1 log. Further, the “efflux in Caco-2” value in the data set on Caco-2 cell monolayers is given as “no evidence of efflux”. In the data set “in vitro [5]”, this compound had a half-life of 7 min and a microsomal CLint of 247 µL/min/mg. In the data set “in vitro [6]”, this compound showed an apical-to-basolateral permeability (Papp A→B) of 35 ×10⁻⁶ cm/s and a Papp B→A of 36 ×10⁻⁶ cm/s. In the data set “in vitro [7]”, this compound gave a half-life of 5 min and a microsomal CLint of 337 µL/min/mg. Besides, in the data set “physchem” (pH 2, aqueous buffer), the solubility (kinetic) was more than 100 µg/mL. Further, the solubility (kinetic) in the data set “physchem” (pH 6.5, aqueous buffer) was 12.5 to 25 µg/mL (≈ 32 to 64 µM). In addition, the Kd at SARS-CoV-2 PLpro [8] (KD Exp1, SARS-CoV-2 PLpro WT) was 2000 nM. The affinity at SARS-CoV-2 PLpro [8] (KD Exp2, SARS-CoV-2 PLpro WT), expressed as Kd, was 2350 nM. Binding at SARS-CoV-2 PLpro [8] (KD Exp3, SARS-CoV-2 PLpro WT) was characterised by a dissociation constant (Kd) of 2850 nM. The compound also displayed a Kd at SARS-CoV-2 PLpro [8] (KD, SARS-CoV-2) of 2400 ± 430 nM. The dissociation constant (Kd) on SARS-CoV PLpro [9] (KD Exp1, SARS-CoV) was determined as 662 nM. At SARS-CoV PLpro [9] (KD Exp2, SARS-CoV), this compound came in with a Kd of 795 nM. This compound came in with a Kd on SARS-CoV PLpro [9] (KD Exp3, SARS-CoV) of 686 nM. Besides, the Kd on SARS-CoV PLpro [9] (KD, SARS-CoV) is 714 nM and 710 nM. This compound also gave an IC50 at MERS-CoV PLpro [10] of more than 98000 nM. At SARS-CoV-2 PLpro [1] (IC50, SARS-CoV-2), this compound came in with an IC50 of 1020 nM.

For `CCOc1ccc(Cl)cc1C(C)N1CCC(C(=O)NCc2ccnc(OC)c2)CC1` (stereo not shown) [Compound 5, 1-[1-(5-chloro-2-ethoxyphenyl)ethyl]-N-[(2-methoxypyridin-4-yl)methyl]piperidine-4-carboxamide], the IC50 on SARS-CoV-2 PLpro [1] (calculated IC50) was 7900 nM.

Turning to `CC(c1cccc2ccccc12)N1CCC(C(=O)NCc2cccc(F)c2)CC1` (stereo not drawn) [rac3k], in the data set on SARS-CoV-2 [11], the “decrease of SARS-CoV-2 viral titers (TCID50)” value is given as 2-3 orders of magnitude. The IC50 on human USP21 is more than 98000 nM; at SARS-CoV-2 PLpro [12] it was 600 to 800 nM; at SARS-CoV-2 PLpro [1] (PLpro IC50) it was 1500 nM.

Regarding `COc1cc(CNC(=O)C2CCN(C(C)c3cc(Cl)ccc3OC)CC2)ccn1` (stereo not shown) [Compound 4, 1-(1-(5-chloro-2-methoxyphenyl)ethyl)-N-((2-methoxypyridin-4-yl)methyl)piperidine-4-carboxamide], the IC50 at SARS-CoV-2 PLpro [1] (calculated IC50) was 4600 nM.

For `C[C@H](c1cccc2ccccc12)N1CCC(C(=O)NCc2ccn(C)c(=O)c2)CC1` [Compound 13, (R)-N-[(1-methyl-2-oxo-1,2-dihydropyridin-4-yl)methyl]-1-[1-(naphthalen-1-yl)ethyl]piperidine-4-carboxamide], the IC50 at SARS-CoV-2 PLpro [1] (calculated IC50) is 690 nM.

Regarding `C[C@H](c1cccc2ccccc12)N1CCC(C(=O)NCc2ccc(S(N)(=O)=O)cc2)CC1` [Compound 16, (R)-1-(1-(naphthalen-1-yl)ethyl)-N-(4-sulfamoylbenzyl)piperidine-4-carboxamide formate], at SARS-CoV-2 PLpro [1] (calculated IC50), the IC50 was 590 nM.

As usually defined, the IC50 is the concentration needed to halve the response being measured. Broadly, the Kd is the concentration at which binding is half-saturated. By half-life is commonly meant the time needed for the level to fall by half in the phase considered. Low readings indicate rapid decline, high ones slow decline. By microsomal CLint is commonly meant a measure of how fast metabolising enzymes remove a compound, apart from limits set by blood flow. For orientation: Papp A→B means how fast a substance crosses the layer from the apical side. As a reminder, the Papp B→A is how fast a substance crosses the layer from the basolateral side. Usually kinetic solubility stands for solubility judged after dilution from a stock solution rather than from solid.
